Consider one compound from patent US9511055B2, “Angiotensin in treating brain conditions” (TARIX PHARMACEUTICALS LTD., priority 2012, dated 2016).

The experiment relates to MCAO rat model of ischemic stroke. As to the kind of experiment: Stepping test (forelimb akinesia) after tMCAO. It counts as in vivo. The note with it: for stepping test performance vs control: day 15. Here is the method:
For the purposes of this example, Transient middle cerebral artery occlusion (tMCAO) procedure Day is defined as “Day 1” in this study. On the day of surgery anesthesia were induced with 4% isoflurane in a mixture of 70% N2O and 30% O2 and maintained with 1.5-2% isoflurane.
The tMCAO procedures were performed according to the method described R. Schmid-Elsaesser et al. Briefly, the right CCA (Common Carotid Artery) was exposed through a midline neck incision and carefully dissected free from surrounding nerves and fascia—from its bifurcation to the base of the skull. The occipital artery branches of the ECA (External Carotid Artery) were then isolated, and these branches were dissected and coagulated. The ECA was dissected further distally and coagulated along with the terminal lingual and maxillary artery branches, which was then divided. The ICA (Internal Carotid Artery) was isolated and carefully separated from the adjacent vagus nerve, and the pterygopalatine artery was ligated close to its origin with a 5-0 nylon suture (SMI, Belgium). Next, a 4-0 silk suture was tied loosely around the mobilized ECA stump, and a 4 cm length of 4-0 monofilament nylon suture (the tip of the suture was blunted by using a flame, and the suture was coated with polylysine, prior to insertion) was inserted through the proximal ECA into the ICA and thence into the circle of Willis, effectively occluding the MCA. The surgical wound was closed and the animals were returned to their cages to recover from anesthesia. One hour and a half after occlusion rats were re-anesthetized, the monofilament was withdrawn to allow reperfusion, the surgical wound was closed and rats were returned to their cages.
Animals were subjected to a modified Modified Neurological Rating Scale (mNRS) at 24 hours post reperfusion. Only animals with an overall score of ≧10 are included in this study. Animals were allocated into the test groups, according to the mNRS results on day 2, in order to have similar distribution of rats performance between groups. Started on day 2, 24 hours post-surgery, each animal is implanted subcutaneously with osmotic Alzet pump and is treated by continuous PanCyte administration (2.5 mg/ml or 25 mg/ml in PBS; SEQ ID NO:22).
Animals were tested for forelimb akinesia in a stepping test. The animal was held with its hind limbs fixed with one hand and the forelimb not monitored with the other, while the unrestrained fore-paw touches a table. The number of adjusting steps were counted while the animal was moved sideways along the table surface (85 cm in approximately five seconds), in the forehand & backhand direction for both forelimbs. […] Four groups were analyzed in this test, a control group (receiving only PBS for 49 days), a group receiving 50 μg/kg PanCyte for 49 days, a group receiving 500 μg/kg PanCyte for 49 days, and a group receiving 50 μg/kg PanCyte for 14 days.
Animals were subjected to a modified Modified Neurological Rating Scale (mNRS) at 24 hours post reperfusion. Only animals with an overall score of ≧10 were included in this study. Animals were allocated into the test groups, according to the mNRS results on day 2, in order to have similar distribution of rats performance between groups. Starting on day 2, 24 hours post-surgery, animals in groups 4, 5 and 7 were implanted subcutaneously with an osmotic Alzet pump and treated with either 500 μg/kg TXA127 (SEQ ID NO:1), 500 μg/kg PanCyte (SEQ ID NO:22), or 50 μg/kg Linear PanCyte (SEQ ID NO:6). Animals in groups 2, 3 and 6 received 500 μg/kg or 1,000 μg/kg TXA127 or 500 μg/kg PanCyte, administered subcutaneously via daily injection. Animals in group 1 were treated with a daily subcutaneous injection of a PBS (vehicle).
Animals were tested for forelimb akinesia in a stepping test (ST). The animal was held with its hind limbs fixed with one hand and the forelimb not to be monitored with the other, while the unrestrained fore-paw touches the table. […]

For `CCC(C)C1NC(=O)C(NC(=O)C(NC(=O)C(CCCNC(=N)N)NC(=O)C(N)CC(=O)O)C(C)C)CSCC(C(=O)O)NC(=O)C(Cc2c[nH]cn2)NC1=O` (centres unmarked) [PanCyte, Asp^1-Arg^2-Val^3-Ser^4-Ile^5-His^6-Cys^7 (SEQ ID NO: 22)], the “stepping test performance vs control” value is listed as “did not reach statistically significant levels” (Example 1, 50 μg/kg for 14 days, continuous s.c. Alzet pump, trending toward improvement); “performed significantly better than controls” (Example 1, 50 μg/kg for 49 days, continuous s.c. Alzet pump); “did not reach statistically significant levels” (Example 1, 500 μg/kg for 49 days, continuous s.c. Alzet pump, trending toward improvement). For the same compound, for the setting “Example 1, each PanCyte group (50 μg/kg 49 days, 500 μg/kg 49 days, 50 μg/kg 14 days), continuous s.c. Alzet pump, day 22, continued through day 36”, the “stepping test performance (number of adjusting steps) vs control” value is “increased performance of rats by day 22”. Also, for the setting “Example 2, all experimental conditions (s.c. daily injection or Alzet pump, 28 days), by Day 21 post-surgery”, the “stepping test performance vs vehicle control” value is “significantly improved the performance of treated rats”.
